Reference: patent US12503438B2, “Compounds for the treatment of kinase-dependent disorders” (Exelixis, Inc., priority 2019, dated 2025)
pIC50: −log10 of the molar value.

Target: KDR (Homo sapiens, UniProt P35968)
Test: KDR autophosphorylation ELISA in HUVEC cells
Format: cell-based
Parameters: endogenous in cells; host or cells: HUVEC (Lonza #C2519A)
Settings: cellular activity, VEGF165-stimulated, phospho-KDR ELISA
Protocol: Human umbilical vein endothelial cells or HUVEC (Lonza #C2519A) were seeded at 2×10^4 cells/well onto 96-well plates (Corning #3904), in EGM-2 growth medium (Lonza #CC-3162) containing 1% Penicillin Streptomycin (Thermo Fisher #15140-122). HUVEC cells were incubated at 37° C., 5% CO2 for 24 h and then starved for 24 h in serum-free EBM-2 basal medium (Lonza #CC-3156) containing 1% Penicillin Streptomycin. Test compounds were serially diluted to produce an 8-point dose curve in fresh serum-free medium to a final concentration of 0.3% DMSO (vehicle) and added to the cells and incubated for 1 h. Cells were then stimulated with 100 ng/mL recombinant human VEGF165 (R&D Systems #293-VE-500) for 5 min, washed with cold PBS, and immediately lysed with 130 μL of cold 1× lysis buffer [20 mM Tris, 137 mM sodium chloride, 2 mM EDTA, 10% glycerol, 1% NP-40 alternative, 1 mM activated sodium orthovanadate, 1 mM PefaBloc SC (Sigma-Aldrich #11429868001), protease/phosphatase inhibitor tablet (Thermo Fisher #A32959)]. Lysates were collected and 100 μL/well added into the human phospho-KDR DuoSet IC ELISA (R&D Systems #DYC1766-2). Assay was performed according to manufacturer's instructions and sample phospho-KDR concentrations were extrapolated using human phospho-KDR control (R&D Systems #841421) as a standard. Positive control wells (100% activity) contained VEGF165-stimulated, DMSO-treated cell lysates. Negative control wells (0% activity) contained non-stimulated cell lysates. IC50 values were calculated by nonlinear regression analysis using a 4-parameter logistic curve fit in ActivityBase XE (IDBS).

KDR, sequence (P35968 20-1356): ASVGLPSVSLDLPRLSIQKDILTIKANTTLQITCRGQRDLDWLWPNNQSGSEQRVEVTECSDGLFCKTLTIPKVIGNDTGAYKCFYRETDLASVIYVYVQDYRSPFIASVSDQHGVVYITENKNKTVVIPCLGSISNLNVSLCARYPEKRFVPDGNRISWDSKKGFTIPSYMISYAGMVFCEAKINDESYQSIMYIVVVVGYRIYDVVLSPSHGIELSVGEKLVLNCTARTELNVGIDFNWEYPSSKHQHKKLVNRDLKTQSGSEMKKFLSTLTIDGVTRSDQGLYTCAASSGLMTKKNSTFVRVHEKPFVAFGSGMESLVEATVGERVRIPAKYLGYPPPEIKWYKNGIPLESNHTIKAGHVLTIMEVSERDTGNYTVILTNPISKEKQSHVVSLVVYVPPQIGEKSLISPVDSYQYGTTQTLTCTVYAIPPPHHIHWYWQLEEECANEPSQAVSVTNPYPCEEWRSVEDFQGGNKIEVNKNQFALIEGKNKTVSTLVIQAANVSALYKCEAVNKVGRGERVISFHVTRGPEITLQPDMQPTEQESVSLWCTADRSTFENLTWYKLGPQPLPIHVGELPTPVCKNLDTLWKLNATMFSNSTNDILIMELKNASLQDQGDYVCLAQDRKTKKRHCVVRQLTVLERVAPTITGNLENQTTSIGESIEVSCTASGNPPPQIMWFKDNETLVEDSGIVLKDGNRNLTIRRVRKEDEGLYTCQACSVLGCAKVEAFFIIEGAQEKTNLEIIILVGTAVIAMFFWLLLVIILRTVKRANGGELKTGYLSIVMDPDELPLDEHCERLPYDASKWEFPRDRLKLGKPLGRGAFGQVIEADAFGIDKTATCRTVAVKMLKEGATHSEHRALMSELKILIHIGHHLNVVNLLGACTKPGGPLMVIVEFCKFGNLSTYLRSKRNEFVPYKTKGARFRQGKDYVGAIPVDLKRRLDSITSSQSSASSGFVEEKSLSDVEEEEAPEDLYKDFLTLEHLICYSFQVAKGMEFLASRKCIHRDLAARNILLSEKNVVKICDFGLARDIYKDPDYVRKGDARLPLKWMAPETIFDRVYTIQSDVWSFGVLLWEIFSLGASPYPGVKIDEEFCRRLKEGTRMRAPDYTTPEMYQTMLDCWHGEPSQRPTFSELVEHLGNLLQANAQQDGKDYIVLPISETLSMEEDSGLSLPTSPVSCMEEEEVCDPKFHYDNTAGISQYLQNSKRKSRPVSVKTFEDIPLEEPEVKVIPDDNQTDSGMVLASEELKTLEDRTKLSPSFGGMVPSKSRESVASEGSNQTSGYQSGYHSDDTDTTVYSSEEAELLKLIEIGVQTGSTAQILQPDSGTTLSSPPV

Structure (SMILES) | pIC50
O=C(Nc1ccc(F)cc1)C1(C(=O)Nc2ccc(Oc3ccnc4cc(-c5cncc(F)c5)ccc34)cc2)CC1 [Compound 45, 1-N′-(4-Fluorophenyl)-1-N-[4-[7-(5-fluoropyridin-3-yl)quinolin-4-yl]oxyphenyl]cyclopropane-1,1-dicarboxamide] | 6.52 to 7.00
Cc1cncc(-c2ccc3c(Oc4ccc(NC(=O)C5(C(=O)Nc6ccc(F)cc6)CC5)cc4)ccnc3c2)c1 [Compound 46, 1-N′-(4-Fluorophenyl)-1-N-[4-[7-(5-methylpyridin-3-yl)quinolin-4-yl]oxyphenyl]cyclopropane-1,1-dicarboxamide] | 7.00 to 8.00
COc1cc(-c2ccc3c(Oc4ccc(NC(=O)C5(C(=O)Nc6ccc(F)cc6)CC5)cc4)ccnc3c2)ccn1 [Compound 31, 1-N′-(4-Fluorophenyl)-1-N-[4-[7-(2-methoxypyridin-4-yl)quinolin-4-yl]oxyphenyl]cyclopropane-1,1-dicarboxamide] | 7.00 to 8.00
O=C(Nc1ccc(F)cc1)C1(C(=O)Nc2cc(F)c(Oc3ccnc4cc(-c5cnn(C(F)F)c5)ccc34)cc2F)CC1 [Compound 118, 1-N′-[4-[7-[1-(Difluoromethyl)pyrazol-4-yl]quinolin-4-yl]oxy-2,5-difluorophenyl]-1-N-(4-fluorophenyl)cyclopropane-1,1-dicarboxamide] | 7.00 to 8.00
Cc1cc2c(Oc3c(F)cc(NC(=O)C4(C(=O)Nc5ccc(F)cc5)CC4)c(F)c3F)ccnc2cc1-c1cnn(C)c1 [Compound 110, 1-N-(4-Fluorophenyl)-1-N′-[2,3,5-trifluoro-4-[6-methyl-7-(1-methylpyrazol-4-yl)quinolin-4-yl]oxyphenyl]cyclopropane-1,1-dicarboxamide] | 6.52 to 7.00
O=C(Nc1ccc(F)cc1)C1(C(=O)Nc2ccc(Oc3ccnc4cc(-c5cc6n(n5)CCC6)ccc34)cc2)CC1 [Compound 124, 1-N-[4-[7-(5,6-Dihydro-4H-pyrrolo[1,2-b]pyrazol-2-yl)quinolin-4-yl]oxyphenyl]-1-N′-(4-fluorophenyl)cyclopropane-1,1-dicarboxamide] | 7.00 to 8.00
O=C(Nc1ccc(F)cc1)C1(C(=O)Nc2ccc(Oc3ccnc4cc(-c5cccnc5O)ccc34)cc2)CC1 [Compound 52, 1-N′-(4-Fluorophenyl)-1-N-[4-[7-(2-hydroxypyridin-3-yl)quinolin-4-yl]oxyphenyl]cyclopropane-1,1-dicarboxamide] | 7.00 to 8.00
O=C(Nc1ccc(F)cc1)C1(C(=O)Nc2ccc(Oc3ccnc4cc(-c5cnn6c5CCC6)ccc34)cc2)CC1 [Compound 29, 1-N-[4-[7-(5,6-Dihydro-4H-pyrrolo[1,2-b]pyrazol-3-yl)quinolin-4-yl]oxyphenyl]-1-N′-(4-fluorophenyl)cyclopropane-1,1-dicarboxamide] | 7.00 to 8.00
O=C(Nc1ccc(F)cc1)C1(C(=O)Nc2ccc(Oc3ccnc4cc(-c5ccnc(F)c5)ccc34)cc2)CC1 [Compound 33, 1-N′-(4-Fluorophenyl)-1-N-[4-[7-(2-fluoropyridin-4-yl)quinolin-4-yl]oxyphenyl]cyclopropane-1,1-dicarboxamide] | 7.00 to 8.00
Cc1cc(-c2ccc3c(Oc4ccc(NC(=O)C5(C(=O)Nc6ccc(F)cc6)CC5)cc4)ccnc3c2)ccn1 [Compound 30, 1-N′-(4-Fluorophenyl)-1-N-[4-[7-(2-methylpyridin-4-yl)quinolin-4-yl]oxyphenyl]cyclopropane-1,1-dicarboxamide] | 7.00 to 8.00
N#Cc1cc(-c2ccc3c(Oc4ccc(NC(=O)C5(C(=O)Nc6ccc(F)cc6)CC5)cc4)ccnc3c2)ccn1 [Compound 34, 1-N-[4-[7-(2-Cyanopyridin-4-yl)quinolin-4-yl]oxyphenyl]-1-N′-(4-fluorophenyl)cyclopropane-1,1-dicarboxamide] | 7.00 to 8.00
Cc1cc2c(Oc3cc(Cl)c(NC(=O)C4(C(=O)Nc5ccc(F)cc5)CC4)cc3F)ccnc2cc1-c1cnn(C)c1 [Compound 112, 1-N′-[2-Chloro-5-fluoro-4-[6-methyl-7-(1-methylpyrazol-4-yl)quinolin-4-yl]oxyphenyl]-1-N-(4-fluorophenyl)cyclopropane-1,1-dicarboxamide] | < 6.52

Further lines, results first:

pIC50 | Structure (SMILES)
7.00 to 8.00 | Nc1ccc(-c2ccc3c(Oc4ccc(NC(=O)C5(C(=O)Nc6ccc(F)cc6)CC5)cc4)ccnc3c2)cn1 [Compound 38, 1-N-[4-[7-(6-Aminopyridin-3-yl)quinolin-4-yl]oxyphenyl]-1-N′-(4-fluorophenyl)cyclopropane-1,1-dicarboxamide]
7.00 to 8.00 | O=C(Nc1ccc(F)cc1)C1(C(=O)Nc2ccc(Oc3ccnc4cc(-c5cnc6[nH]ncc6c5)ccc34)cc2)CC1 [Compound 39, 1-N′-(4-Fluorophenyl)-1-N-[4-[7-(1H-pyrazolo[3,4-b]pyridin-5-yl)quinolin-4-yl]oxyphenyl]cyclopropane-1,1-dicarboxamide]
≥ 8.00 | O=C(Nc1ccc(F)cc1)C1(C(=O)Nc2ccc(Oc3ccnc4cc(-c5ccncn5)ccc34)cc2)CC1 [Compound 114, 1-N′-(4-Fluorophenyl)-1-N-[4-(7-pyrimidin-4-ylquinolin-4-yl)oxyphenyl]cyclopropane-1,1-dicarboxamide]
≥ 8.00 | O=C(Nc1ccc(F)cc1)C1(C(=O)Nc2ccc(Oc3ccnc4cc(-c5cnn(C(F)F)c5)ccc34)c(F)c2)CC1 [Compound 123, 1-N′-[4-[7-[1-(Difluoromethyl)pyrazol-4-yl]quinolin-4-yl]oxy-3-fluorophenyl]-1-N-(4-fluorophenyl)cyclopropane-1,1-dicarboxamide]
≥ 8.00 | O=C(Nc1ccc(F)cc1)C1(C(=O)Nc2ccc(Oc3ccnc4cc(-c5ccc(O)nc5)ccc34)cc2)CC1 [Compound 51, 1-N′-(4-Fluorophenyl)-1-N-[4-[7-(6-hydroxypyridin-3-yl)quinolin-4-yl]oxyphenyl]cyclopropane-1,1-dicarboxamide]
≥ 8.00 | O=C(Nc1ccc(F)cc1)C1(C(=O)Nc2ccc(Oc3ccnc4cc(-c5ccc[n+]([O-])c5)ccc34)cc2)CC1 [Compound 109, 1-N′-(4-Fluorophenyl)-1-N-[4-[7-(1-oxidopyridin-1-ium-3-yl)quinolin-4-yl]oxyphenyl]cyclopropane-1,1-dicarboxamide]
≥ 8.00 | Cn1cc(-c2ccc3c(Oc4ccc(NC(=O)C5(C(=O)Nc6ccc(F)cc6)CC5)cc4)ccnc3c2)ccc1=O [Compound 119, 1-N′-(4-Fluorophenyl)-1-N-[4-[7-(1-methyl-6-oxopyridin-3-yl)quinolin-4-yl]oxyphenyl]cyclopropane-1,1-dicarboxamide]
≥ 8.00 | Cn1ccc(-c2ccc3c(Oc4ccc(NC(=O)C5(C(=O)Nc6ccc(F)cc6)CC5)cc4)ccnc3c2)cc1=O [Compound 117, 1-N′-(4-Fluorophenyl)-1-N-[4-[7-(1-methyl-2-oxopyridin-4-yl)quinolin-4-yl]oxyphenyl]cyclopropane-1,1-dicarboxamide]
≥ 8.00 | CC(C)n1cc(-c2ccc3c(Oc4ccc(NC(=O)C5(C(=O)Nc6ccc(F)cc6)CC5)cc4)ccnc3c2)cn1 [Compound 21, 1-N′-(4-Fluorophenyl)-1-N-[4-[7-(1-propan-2-ylpyrazol-4-yl)quinolin-4-yl]oxyphenyl]cyclopropane-1,1-dicarboxamide]
≥ 8.00 | O=C(Nc1ccc(F)cc1)C1(C(=O)Nc2cc(F)c(Oc3ccnc4cc(-c5cccnc5)ccc34)cc2F)CC1 [Compound 115, 1-N′-[2,5-Difluoro-4-(7-pyridin-3-ylquinolin-4-yl)oxyphenyl]-1-N-(4-fluorophenyl)cyclopropane-1,1-dicarboxamide]
